Reference: patent publication US11571480B2, “Multi-ligand drug conjugates and uses thereof” (priority 2015, dated 2023)
Square brackets hold non-standard residues; d marks the D form. Peptide text beside a SMILES is read from it. * marks the point of attachment. Dolaproine = CO[C@@H]([C@@H]1CCCN1)[C@@H](C)C(=O)O; Dil = CC[C@H](C)[C@H](NC)[C@@H](CC(=O)O)OC; X1 = C[C@@H](N*)[C@@H](O)c1ccccc1; NMeV = CN[C@H](C(=O)O)C(C)C

Experiments:
melanoma cell line A375 [1] = test: Cytotoxicity test of conjugate LDC1013; assay type: cell-based; conditions: A375, incubated 15-30 min, then 2-3 days
Protocol: (§1) Culture medium: RPMI 1640 Medium, no folic acid
(§2) 1) human nasopharyngeal cancer cell line KB, melanoma cell line A375, and human lung cancer cell H460 were incubated at 37° C., 5% CO2 in RPMI 1640 medium containing 10% fetal bovine serum, the cells were passaged every 2-3 days.
(§3) 2) human nasopharyngeal cancer cell line KB, melanoma cell line A375, and human lung cancer cell H460 were plated at 1×10^3 cells per well (96-well plate) and incubated for 8-12 h at 37° C., 5% CO2.
(§4) 3) Stock solutions of LDC conjugates or control were prepared in PBS solution. 100 μL/well of serially diluted LDC conjugates or control was added to the cells in the plate and incubated for 15-30 min at 37° C., 5% CO2. The culture medium in the wells was then removed by aspiration and the cells were incubated in fresh culture medium without conjugates (150 μL/well) for 2-3 days at 37° C., 5% CO2.
(§5) 4) CellTiter 96® Aqueous One Solution Cell Proliferation Assay (Promega) was added to each well to measure the amount of […] cells, and the plate was incubated in an incubator for 1 h at 37° C., 5% CO2.
(§6) 5) the plate was read at 490 nm on a microplate reader, and the cell survivals were compared for cells with or without the treatment of LDC conjugates. The LDC drug concentrations that are required for 50% cell death (IC50 values) were determined.

[2] = test system: human nasopharyngeal cancer cell line KB; test: Cytotoxicity test of conjugate LDC1013; assay type: cell-based; conditions: incubated 15-30 min, then 2-3 days
Protocol: as §1, §2, §3, §4, §5, §6

[3] = test system: human lung cancer cell H460; test: Cytotoxicity test of conjugate LDC1013; assay type: cell-based; conditions: H460, incubated 15-30 min, then 2-3 days
Protocol: as §1, §2, §3, §4, §5, §6

melanoma cell line A375 [4] = test: Cytotoxicity test of conjugate LDC10B; assay type: cell-based; conditions: A375, Incubation Time 15 min
Protocol: as §1
(§7) 1) human nasopharyngeal cancer cell line KB, melanoma cell line A375, human lung cancer cell H1299, chronic myeloid leukemia cell line K562, human lung cancer cell H460, ovarian cancer cell SKOV3, breast cancer cell line HCC1954, human gastric cancer cell N87, and human breast cancer cell SK-BR-3 were incubated at 37° C., 5% CO2 in RPMI 1640 medium containing 10% fetal bovine serum, the cells were passaged every 2-3 days.
(§8) 2) human nasopharyngeal cancer cell line KB, melanoma cell line A375, human lung cancer cell H1299, chronic myeloid leukemia cell line K562, human lung cancer cell H460, ovarian cancer cell SKOV3, breast cancer cell line HCC1954, human gastric cancer cell N87, and human breast cancer cell SK-BR-3 were plated at 1×10^3 cells per well (96-well plate) and incubated for 8-12 h at 37° C., 5% CO2.
(§9) 3) Stock solutions of LDC conjugates or controls were prepared in PBS solution. 100 μL/well of serially diluted LDC conjugates or controls was added to the test cells in the plates and incubated for 15-30 min at 37° C., 5% CO2. The culture medium in the wells was then removed by aspiration and the test cells were incubated in fresh culture medium without conjugates (150 μL/well) for 2-3 days at 37° C., 5% CO2.
(§10) 4) CellTiter 96® Aqueous One Solution Cell Proliferation Assay (Promega) was added to each well to measure the amount of […] cells, and each plate was incubated in an incubator for 1 h at 37° C., 5% CO2.
(§11) 5) Each plate was read at 490 nm on a microplate reader, and the cell survivals were compared for test cells with or without the treatment of LDC conjugates. The LDC drug concentrations that are required for 50% cell death (IC50 values) were determined.

[5] = test system: human gastric cancer cell N87; test: Cytotoxicity test of conjugate LDC10B; assay type: cell-based; conditions: N87, Incubation Time 30 min
Protocol: as §1, §7, §8, §9, §10, §11

[6] = test system: human breast cancer cell SK-BR-3; test: Cytotoxicity test of conjugate LDC10B; assay type: cell-based; conditions: SK-BR-3, Incubation Time 30 min
Protocol: as §1, §7, §8, §9, §10, §11

[7] = test system: human nasopharyngeal cancer cell line KB; test: Cytotoxicity test of conjugate LDC10B; assay type: cell-based; conditions: Incubation Time 15 min
Protocol: as §1, §7, §8, §9, §10, §11

[8] = test system: human lung cancer cell H1299; test: Cytotoxicity test of conjugate LDC10B; assay type: cell-based; conditions: H1299, Incubation Time 30 min
Protocol: as §1, §7, §8, §9, §10, §11

[9] = test system: chronic myeloid leukemia cell line K562; test: Cytotoxicity test of conjugate LDC10B; assay type: cell-based; conditions: K562, Incubation Time 30 min
Protocol: as §1, §7, §8, §9, §10, §11

[10] = test system: human lung cancer cell H460; test: Cytotoxicity test of conjugate LDC10B; assay type: cell-based; conditions: H460, Incubation Time 30 min
Protocol: as §1, §7, §8, §9, §10, §11

[11] = test system: human embryonic kidney cell 293A; test: Cytotoxicity test of conjugate LDC11B; assay type: cell-based; conditions: incubated 15-30 min, then 2-3 days
Protocol: as §1
(§12) 1) human lung cancer cell H460, ovarian cancer cell SKOV3, human embryonic kidney cell 293A were incubated at 37° C., 5% CO2 in RPMI 1640 medium containing 10% fetal bovine serum, the cells were passaged every 2-3 days.
(§13) 2) human lung cancer cell H460, ovarian cancer cell SKOV3, human embryonic kidney cell 293A were plated at 1×10^3 cells per well (96-well plate) and incubated for 8-12 h at 37° C., 5% CO2.
as §4, §5
(§14) 5) The plate was read at 490 nm on a microplate reader, and the cell survivals were compared for cells with or without the treatment of LDC conjugates. The LDC drug concentrations that are required for 50% cell death (IC50 values) were determined.

[12] = test system: human lung cancer cell H460; test: Cytotoxicity test of conjugate LDC11B; assay type: cell-based; conditions: H460, incubated 15-30 min, then 2-3 days
Protocol: as §1, §12, §13, §4, §5, §14

[13] = test system: ovarian cancer cell SKOV3; test: Cytotoxicity test of conjugate LDC10H; assay type: cell-based, human; conditions: SKOV3, incubated 15-30 min, then 2-3 days
Protocol: as §1
(§15) 1) human lung cancer cell H1299, ovarian cancer cell SKOV3, breast cancer cell line HCC1954, and human lung cancer cell H460 were incubated at 37° C., 5% CO2 in RPMI 1640 medium containing 10% fetal bovine serum, the cells were passaged every 2-3 days.
(§16) 2) human lung cancer cell H1299, ovarian cancer cell SKOV3, breast cancer cell line HCC1954, and human lung cancer cell H460 were plated at 1×10^3 cells per well (96-well plate) and incubated for 8-12 h at 37° C., 5% CO2.
as §4, §5, §6

[14] = test system: breast cancer cell line HCC1954; test: Cytotoxicity test of conjugate LDC10H; assay type: cell-based, human; conditions: HCC1954, incubated 15-30 min, then 2-3 days
Protocol: as §1, §15, §16, §4, §5, §6

[15] = test system: human lung cancer cell H460; test: Cytotoxicity test of conjugate LDC10BR; assay type: cell-based; conditions: H460, incubated 15-30 min, then 2-3 days
Protocol: as §1, §2, §3, §4, §5, §6

[16] = test system: human neuroblastoma cell line SH-SY5Y; test: Cytotoxicity test of conjugate LDC12B; assay type: cell-based; conditions: incubated 15-30 min, then 2-3 days
Protocol: as §1
1) human endometrial cancer cell HEC-1A, human gastric cancer cell line GTL-16, human colon carcinoma HCT-116, human neuroblastoma cell line SH-SY5Y were incubated at 37° C., 5% CO2 in RPMI 1640 medium containing 10% fetal bovine serum, the cells were passaged every 2-3 days.
2) human endometrial cancer cell HEC-1A, human gastric cancer cell line GTL-16, Human colon carcinoma HCT-116, human neuroblastoma cell line SH-SY5Y were plated at 1×10^3 cells per well (96-well plate) and incubated for 8-12 h at 37° C., 5% CO2.
as §4, §5, §6

Q: For `CC[C@H](C)[C@@H]([C@@H](CC(=O)N1CCC[C@H]1[C@H](OC)[C@@H](C)C(=O)N[C@H](C)[C@@H](O)c1ccccc1)OC)N(C)C(=O)[C@@H](NC(=O)[C@@H](NC)C(C)C)C(C)C` [MMAE] (H-[NMeV]V[Dil][Dolaproine]-X1), which IC50 (melanoma cell line A375 [1]) is on record?
A: 85000 pM

Q: And the IC50 [2]?
A: 20000 pM

Q: What about the IC50 [3] of the same molecule?
A: 37000 pM

Q: What about the IC50 (melanoma cell line A375 [4]) of the same molecule?
A: 100000 pM

Q: And the IC50 [5]?
A: 680 pM

Q: What about the IC50 [6] of the same molecule?
A: 520 pM

Q: And the IC50 [7]?
A: 89000 pM

Q: And the IC50 [8]?
A: 860 pM

Q: And the IC50 [9]?
A: 540 pM

Q: And the IC50 [10]?
A: 770 pM

Q: What about the IC50 [11] of the same molecule?
A: 860 pM

Q: What about the IC50 [12] of the same molecule?
A: 580 pM

Q: What about the IC50 [13] of the same molecule?
A: 490 pM

Q: And the IC50 [14]?
A: 290 pM

Q: And the IC50 [15]?
A: 37000 pM

Q: What about the IC50 [16] of the same molecule?
A: 24000 pM
